One series concerns the target T1, DDX1 (Homo sapiens, UniProt Q92499).
T1 sequence (Q92499 1-740): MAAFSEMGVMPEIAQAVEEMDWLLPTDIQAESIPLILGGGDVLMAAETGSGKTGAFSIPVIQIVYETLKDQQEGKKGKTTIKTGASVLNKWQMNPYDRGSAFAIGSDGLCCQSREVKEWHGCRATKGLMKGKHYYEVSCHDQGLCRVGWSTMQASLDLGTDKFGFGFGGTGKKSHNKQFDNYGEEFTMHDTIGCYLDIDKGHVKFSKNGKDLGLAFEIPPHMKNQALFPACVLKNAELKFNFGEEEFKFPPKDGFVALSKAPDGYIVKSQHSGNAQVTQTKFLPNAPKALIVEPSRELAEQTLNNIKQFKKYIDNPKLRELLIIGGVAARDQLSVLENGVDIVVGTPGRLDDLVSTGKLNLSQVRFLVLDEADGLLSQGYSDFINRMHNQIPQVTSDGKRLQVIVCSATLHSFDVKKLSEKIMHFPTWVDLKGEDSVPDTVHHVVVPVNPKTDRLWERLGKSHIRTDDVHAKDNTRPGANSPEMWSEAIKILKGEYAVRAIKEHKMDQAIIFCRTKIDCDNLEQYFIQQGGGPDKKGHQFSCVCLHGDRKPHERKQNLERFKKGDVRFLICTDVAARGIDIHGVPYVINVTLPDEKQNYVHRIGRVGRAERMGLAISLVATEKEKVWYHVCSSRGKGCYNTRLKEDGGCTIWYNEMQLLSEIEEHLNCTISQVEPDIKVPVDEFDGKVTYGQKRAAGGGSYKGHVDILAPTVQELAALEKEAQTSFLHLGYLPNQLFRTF
Nature of the series: DDX1 helicase activity inhibition. The class given is biochemical. Particulars: for IC50: helicase activity of DDX1, read-out: DDX1 IC50 ± SD. From the text:
To confirm the proposed mechanism of action and the selectivity of our compounds for the helicase binding site, we tested the capability of BA103 to inhibit the ATPase activity of DDX3X and the helicase activity of DDX1, which is another human member of the DEAD-box family.

In a further series the test system is BJ primary fibroblasts. Nature of the series: Cytotoxicity against BJ primary fibroblasts. The class given is cell-based. As to the method: For CellTiter 96® Aqueous One Solution Cell Proliferation Assay (MTS) (Promega, Madison, WI, USA), cells were seeded at 5 × 10^3 per well in 96-well plates in quadruplicate together a control with no cells to evaluate the background. After 24 h, the culture medium was removed, and fresh medium containing increasing concentrations of chemical compounds was added to cells. The fixed final concentrations were 0.1 μM, 1 μM, 10 μM, and 100 μM. DMSO was the vehicle used for dilution of the compounds, and its final concentration on cells was less than 0.2%. Medium-only containing wells were included as controls. Cells were incubated with compounds at different concentrations for 72 h, then, 20 µL of CellTiter 96® AQueous One Solution Reagent was added into each well. After 3 h at 37 °C in a humidified, 5% CO2 atmosphere, the absorbance at 492 nm was recorded using an EZREAD400 (Biochrom, Cambridge, United Kingdom) plate reader. The average 490 nm absorbance from the “no cell” control wells was subtracted from all other values to yield background-corrected absorbance. Dose–response curves and CC50 values have been calculated by plotting the absorbance data as a function of inhibitor concentrations and fitting the data by least-squares nonlinear regression, according to the method of Marquardt–Levenberg, with the computer program GraphPad Prism 6.0.
Cells were incubated with a scalar concentration of DDX3X inhibitors, and after 72 h of treatment, cell viability was assessed by cytotoxicity assay. […] Compounds 4, 6, and BA103 were also evaluated against BJ primary fibroblasts; compound 4 has a cytotoxicity value of 84.7 μM; on the contrary, compounds 6 and BA103 were not toxic up to 200 μM concentration. This further excluded a possible nonspecific cytotoxic effect. […] Due to its interesting profile, compound BA103 was further tested against additional pulmonary (A549), breast (MDA-MB-231), colorectal (HCT-116), osteosarcoma (U2OS), rhabdomyosarcoma (RD18), GBM (DBTRG, U87, and U251) and medulloblastoma (DAOY) cancer cell lines.

Regarding `CCCCc1cn(-c2ccc(NC(=O)Nc3ccccc3C(F)(F)F)cc2)nn1` [BA103, 1-(4-(4-Butyl-1H-1,2,3-triazol-1-yl)phenyl)-3-(2-(trifluoromethyl)phenyl)urea], at DDX1, the “SI (Selectivity Index)” value was above 250 and the IC50 (in general, the concentration that inhibits the measured activity by half) was above 100 µM. The cytotoxicity value in the series with BJ primary fibroblasts was above 200 µM.

For `CCCCc1cn(-c2ccc(NC(=O)Nc3ccccc3C)cc2)nn1` [Compound 1, reference compound], at DDX1, the “SI (Selectivity Index)” value is above 666 and the IC50 is above 200 µM.

For `CCCCc1nnc(-c2ccc(NC(=O)Nc3ccccc3C(F)(F)F)cc2)[nH]1` [Compound 4, 1-(4-(5-Butyl-4H-1,2,4-triazol-3-yl)phenyl)-3-(2-(trifluoromethyl)phenyl)urea], at DDX1, the “SI (Selectivity Index)” value is listed as 418 and the IC50 worked out at 29.3 ± 16.8 µM. Further, in the series on BJ primary fibroblasts, the cytotoxicity value amounted to 84.7 µM.

As to `CCCCn1nnc(-c2ccc(NC(=O)Nc3ccccc3C(F)(F)F)cc2)n1` [Compound 6, 1-(4-(2-Butyl-2H-tetrazol-5-yl)phenyl)-3-(2-(trifluoromethyl)phenyl)urea], the cytotoxicity value with BJ primary fibroblasts is above 200 µM.

`CC(C)CCc1cn(-c2ccc(NC(=O)Nc3cccc4cnccc34)cn2)nn1` [Compound 10, 1-(6-(4-Isopentyl-1H-1,2,3-triazol-1-yl)pyridin-3-yl)-3-(isoquinolin-5-yl)urea]: on DDX1, the “SI (Selectivity Index)” value was above 1000 and the IC50 is above 100 µM.

The values are drawn from article PMC8582824, “Targeting DDX3X Helicase Activity with BA103 Shows Promising Therapeutic Effects in Preclinical Glioblastoma Models” (Cancers, 2021).
